Reference: US20210275657A1, “NEOANTIGENS AND USES THEREOF” (BioNTech US Inc., priority 2018, published 2021)
Read-outs that look alike come from different tables or passages of the source. Where a SMILES comes first, the peptide text is derived from it. Where no end group is shown, it is not given here.

Conditions: for Solubility in […] SS in D5W w/ 4% DMSO: […] sodium succinate in D5W; for solubility: without DMSO; for Solubility in […] SS in D5W w/o DMSO / Solubility in Poly ICLC + […] SS in D5W w/o DMSO: no DMSO; for solubility in low SS: lower SS concentration ([…] SS/D5W)

Row | Compound | Solubility in […] SS in D5W w/ 4% DMSO (4% DMSO, no polyICLC) | Solubility in Poly ICLC + […] SS in D5W w/ 4% DMSO (with polyICLC, 4% DMSO) | Solubility in […] SS in D5W w/o DMSO (no polyICLC) | other results
1 | CSCC[C@H](N)C(=O)N[C@@H](Cc1ccccc1)C(=O)N[C@@H](C)C(=O)N[C@H](C(=O)N[C@@H](CC(C)C)C(=O)N[C@@H](CCC(N)=O)C(=O)N[C@@H](CCCNC(=N)N)C(=O)N[C@@H](CO)C(=O)N[C@@H](CO)C(=O)N[C@@H](CC(C)C)C(=O)N[C@@H](Cc1c[nH]c2ccccc12)C(=O)N[C@@H](CS)C(=O)N[C@@H](CC(C)C)C(=O)N[C@@H](CS)C(=O)N[C@@H](CO)C(=O)N[C@@H](CC(N)=O)C(=O)N[C@@H](Cc1c[nH]cn1)C(=O)O)[C@@H](C)O [Peptide 12b] (H-MFATLQRSSLWCLCSNH-OH) | Yes | No |  | Solubility in 0.5 mM SS in D5W w/ 4% DMSO (0.5 mM sodium succinate in D5W, 4% DMSO, no polyICLC): Yes
2 | CC[C@H](C)[C@H](NC(=O)[C@H](CCCCN)NC(=O)[C@H](CO)NC(=O)[C@@H](N)CCC(=O)O)C(=O)N[C@@H](CCSC)C(=O)N[C@@H](Cc1ccccc1)C(=O)N[C@@H](C)C(=O)N[C@H](C(=O)N[C@@H](CC(C)C)C(=O)N[C@@H](CCC(N)=O)C(=O)N[C@@H](CCCNC(=N)N)C(=O)N[C@@H](CO)C(=O)N[C@@H](CO)C(=O)N[C@@H](CC(C)C)C(=O)O)[C@@H](C)O [Peptide L11i] |  |  | Yes | solubility (0.4 mg/mL, D5W with all SS concentrations tested): soluble; solubility (2 mg/mL in the higher SS concentration, D5W): Some precipitation; solubility in low SS: soluble; Solubility in Poly ICLC + […] SS in D5W w/o DMSO (with polyICLC): Yes
3 | CSCC[C@H](N)C(=O)N[C@@H](Cc1ccccc1)C(=O)N[C@@H](C)C(=O)N[C@H](C(=O)N[C@@H](CC(C)C)C(=O)N[C@@H](CCC(N)=O)C(=O)N[C@@H](CCCNC(=N)N)C(=O)N[C@@H](CO)C(=O)N[C@@H](CO)C(=O)N[C@@H](CC(C)C)C(=O)N[C@@H](Cc1c[nH]c2ccccc12)C(=O)N[C@@H](CS)C(=O)N[C@@H](CC(C)C)C(=O)N[C@@H](CS)C(=O)O)[C@@H](C)O [Peptide L12c] | No |  |  | 
4 | CC(C)C[C@H](NC(=O)[C@H](CS)NC(=O)[C@H](Cc1c[nH]c2ccccc12)NC(=O)[C@H](CC(C)C)NC(=O)[C@H](CO)NC(=O)[C@H](CO)NC(=O)[C@H](CCCNC(=N)N)NC(=O)[C@H](CCC(N)=O)NC(=O)[C@H](CC(C)C)NC(=O)[C@@H](N)[C@@H](C)O)C(=O)N[C@@H](CS)C(=O)N[C@@H](CO)C(=O)N[C@@H](CC(N)=O)C(=O)N[C@@H](Cc1c[nH]cn1)C(=O)O [Peptide L12d] (H-TLQRSSLWCLCSNH-OH) | Yes | Yes | Yes | solubility (5 mM SS, after 6 hours): soluble; Solubility in Poly ICLC + 5 mM SS in D5W w/ 4% DMSO (with polyICLC, 5 mM SS in D5W, 4% DMSO): Yes
5 | CC[C@H](C)[C@H](NC(=O)[C@H](CCCCN)NC(=O)[C@H](CO)NC(=O)[C@H](CCC(=O)O)NC(=O)[C@H](C)NC(=O)[C@H](CCCCN)NC(=O)[C@H](CC(C)C)NC(=O)[C@H](Cc1ccccc1)NC(=O)[C@H](CCSC)NC(=O)[C@H](Cc1ccc(O)cc1)NC(=O)CNC(=O)[C@H](CC(=O)O)NC(=O)[C@H](CCCNC(=N)N)NC(=O)[C@H](CCCCN)NC(=O)[C@@H]1CCCN1C(=O)[C@@H](N)CCCCN)C(=O)N[C@@H](CCSC)C(=O)N[C@@H](Cc1ccccc1)C(=O)N[C@@H](C)C(=O)N[C@H](C(=O)N[C@@H](CC(C)C)C(=O)N[C@@H](CCC(N)=O)C(=O)N[C@@H](CCCNC(=N)N)C(=O)N[C@@H](CO)C(=O)N[C@@H](CO)C(=O)N[C@@H](CC(C)C)C(=O)N[C@@H](Cc1c[nH]c2ccccc12)C(=O)N[C@@H](CS)C(=O)N[C@@H](CC(C)C)C(=O)N[C@@H](CS)C(=O)N[C@@H](CO)C(=O)N[C@@H](CC(N)=O)C(=O)N[C@@H](Cc1c[nH]cn1)C(=O)O)[C@@H](C)O [Peptide L15] (H-KPKRDGYMFLKAESKIMFATLQRSSLWCLCSNH-OH; N-terminus and C-terminus assumed) |  |  | Yes | solubility (0.4 mg/mL in […] SS, after 6 hours): soluble; solubility in 5 mM SS (5 mM SS (higher SS concentration) in D5W): not soluble; solubility in low SS: soluble; Solubility in Poly ICLC + […] SS in D5W w/o DMSO (with polyICLC): Yes
6 | DGYMFLKAESKIMFAT [Peptide L11e] | No |  |  | 
7 | ESKIMFATLQRSSLWC [Peptide L11g] | Yes | No |  | 
